Results from patent publication US8518942B2, “Caspase inhibitors and uses thereof” (Buck Institute for Research on Aging, priority 2008, dated 2013).

Experiments:
caspase-6 [1] = target: T1, caspase-6 (Homo sapiens, UniProt P55212); assay: Blots of full-length huntingtin (23Q & 148Q) treated with caspase-6 plus inhibitor; type: biochemical; conditions: for Proteolysis of Htt at amino acid 586 (caspase-6 site): 1-100 nM; for Inhibition of caspase-6 cleavage of full-length huntingtin (blot): 23Q & 148Q, at 1.0 μM and 10 μM; for Blocking the cleavage of Htt at amino acid 586 mediated by caspase-6: conclusion
T1 construct: gift: Guy Salvesen's laboratory, Burnham Institute (La Jolla, Calif.)
T1 sequence (P55212 24-179 limits assumed): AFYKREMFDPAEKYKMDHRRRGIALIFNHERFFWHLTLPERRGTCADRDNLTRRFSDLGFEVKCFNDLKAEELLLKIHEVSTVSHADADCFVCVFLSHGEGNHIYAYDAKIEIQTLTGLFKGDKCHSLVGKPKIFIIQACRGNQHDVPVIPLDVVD
T1 sequence (P55212 194-293 limits assumed): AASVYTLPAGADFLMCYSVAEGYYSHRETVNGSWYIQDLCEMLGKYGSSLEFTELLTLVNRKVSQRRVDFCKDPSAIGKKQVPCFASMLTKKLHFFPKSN

caspase-8 = target: T2, caspase-8 (Homo sapiens, UniProt Q14790); assay: Irreversible inhibitor kinetic assay (progress curve), caspase-8, substrate Ac-DEVD-AMC; type: biochemical; conditions: casp-8; duplicate, SD included
T2 construct: gift: Guy Salvesen's laboratory, Burnham Institute (La Jolla, Calif.)
Description: (§1) Caspases-3, -6, -7, -8, and -9 were provided by Guy Salvesen's laboratory at the Burnham Institute (La Jolla, Calif.). Caspase-1 was purchased from EMD Biosciences (San Diego, Calif.) and Caspase-2 was purchased from Biomol International (Plymouth Meeting, Pa.). Caspase substrates Ac-DEVD-AMC, Ac-VDVAD-AFC, and Ac-LEHD-AFC were purchased from EMD Biosciences (San Diego, Calif.) and Ac-VDVAD-AMC was purchased from Biomol International (Plymouth Meeting, Pa.). The proteolytic cleavage of N-acyl aminocoumarins by caspases was conducted in Dynatech Microfluor fluorescence 96-well microtiter plates, and readings were taken on a Molecular Devices Spectra Max Gemini XS instrument. The excitation wavelength was 370 nm and the emission wavelength was 455 nm for AMCA substrates, the excitation wavelength was 355 nm and the emission wavelength was 450 nm for peptidyl AMC substrates, and the excitation wavelength was 430 nm and the emission wavelength was 535 nm for peptidyl AFC substrates.
(§2) The kinact/Ki for inhibitors were determined under pseudo-first order conditions using the progress curve method (Eckici et al. (2006) J. Med. Chem., 49: 5728-5749; Bieth (1995) Meth. Enzymol., 248: 59-84). Assay wells contained a mixture of inhibitor and AMC or AFC substrate in buffer. Aliquots of caspase were added to each well to initiate the assay. Hydrolysis of the AMC or AFC substrate was monitored fluorometrically for 45 min. To determine the inhibition parameters, time points for which the control ([I]=0) was linear were used. For each inhibitor, a kobs was calculated for at least four different concentrations of inhibitors via a nonlinear regression of the data according to the equation P=(vi/kobs)[1−exp(−kobst) (where product formation=P, […], and the first-order rate constant=kobs). If kobs varied linearly with [I], then the association constant kass was determined by linear regression analysis using kobs=(kass[I])/(1+[S]/Km) where [S] is the concentration of the substrate. […] Inhibition was measured in duplicate and the average of is reported. […]

Hdh111Q cells = assay: Evaluation of inhibitors in Hdh111Q cells (toxicity, caspase activation); type: cell-based; conditions: for Hdh111Q mediated toxicity: 1-100 nM; for Caspase activation in Hdh111Q cells: FIG. 18
caspase-1 = target: T3, caspase-1 (Homo sapiens, UniProt P29466); assay: Irreversible inhibitor kinetic assay (progress curve), caspase-1, substrate Ac-WEHD-AMC; type: biochemical; conditions: casp-1; duplicate, SD included
T3 construct: purchased EMD Biosciences (San Diego, Calif.)
T3 sequence (P29466 120-297 limits assumed): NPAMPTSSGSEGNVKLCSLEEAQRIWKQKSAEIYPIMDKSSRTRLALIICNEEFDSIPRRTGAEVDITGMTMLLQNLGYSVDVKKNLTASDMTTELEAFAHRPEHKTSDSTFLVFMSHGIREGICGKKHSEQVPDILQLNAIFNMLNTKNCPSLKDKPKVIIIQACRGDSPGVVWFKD
T3 sequence (P29466 317-404 limits assumed): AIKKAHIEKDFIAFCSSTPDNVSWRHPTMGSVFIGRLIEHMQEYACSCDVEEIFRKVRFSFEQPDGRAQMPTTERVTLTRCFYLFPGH
Description: as §1, §2

caspase-6 [2] = target: T1, caspase-6; assay: Irreversible inhibitor kinetic assay (progress curve), caspase-6, substrate Ac-DEVD-AMC; type: biochemical; conditions: casp-6; duplicate, SD included
Description: as §1, §2

T2 sequence (Q14790 217-374 limits assumed): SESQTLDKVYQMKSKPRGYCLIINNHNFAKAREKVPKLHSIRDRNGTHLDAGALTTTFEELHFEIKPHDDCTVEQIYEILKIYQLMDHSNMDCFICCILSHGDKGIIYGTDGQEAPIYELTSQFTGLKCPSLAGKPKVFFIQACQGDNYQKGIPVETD
T2 sequence (Q14790 385-479 limits assumed): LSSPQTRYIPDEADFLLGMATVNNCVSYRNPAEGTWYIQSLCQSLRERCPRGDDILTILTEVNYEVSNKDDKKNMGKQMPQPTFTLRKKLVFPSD

Proteolysis of Htt at amino acid 586 (caspase-6 site) (caspase-6 [1]) | Inhibition of caspase-6 cleavage of full-length huntingtin (blot) (caspase-6 [1]) | Blocking the cleavage of Htt at amino acid 586 mediated by caspase-6 (caspase-6 [1]) | kinact/Ki (caspase-8) | kinact/Ki (caspase-1) | kinact/Ki (caspase-6 [2]) | SMILES | Hdh111Q mediated toxicity (Hdh111Q cells) | Caspase activation in Hdh111Q cells (Hdh111Q cells) | Rank of potency in blocking caspase activation in Hdh111Q cells (Hdh111Q cells; among MJL-001i, MJL-002i, MJL-003i)
blocked | inhibition | affective at blocking | 82,850 ± 1,150 s^−1/M^−1 | 55,200 ± 2,600 s^−1/M^−1 | 23,100 ± 1,900 s^−1/M^−1 | C[C@@](NS(=O)(=O)Cc1ccccc1)(c1cn([C@@H](CC(=O)O)C(=O)COc2c(F)c(F)cc(F)c2F)nn1)C1CCCCC1 [MJL-001i] | suppressed | block | –
blocked | inhibition | affective at blocking | 30,650 ± 1,950 s^−1/M^−1 | 243,250 ± 350 s^−1/M^−1 | 32,950 ± 1,650 s^−1/M^−1 | C[C@@](NC(=O)CCCC(=O)O)(c1cn([C@@H](CC(=O)O)C(=O)COc2c(F)c(F)cc(F)c2F)nn1)C1CCCCC1 [MJL-002i] | suppressed | block | –
blocked | inhibition | affective at blocking | 60,000 ± 2,800 s^−1/M^−1 | 55,200 ± 200 s^−1/M^−1 | 45,750 ± 450 s^−1/M^−1 | C[C@@](NC(=O)Cc1ccccc1)(c1cn([C@@H](CC(=O)O)C(=O)COc2c(F)c(F)cc(F)c2F)nn1)C1CCCCC1 [MJL-003i] | suppressed | block | most potent
